The molecules below were run against bovine cardiac myosin (Bos taurus (Bovine), UniProt Q9BE39) (assay: Myosin inhibitory potency: PK/LDH-coupled ATPase assay on bovine skinned cardiac myofibrils). Conditions: pCa=6.25, 50 μM ATP, 25° C., read-out: myosin inhibition activity IC50.
Assay type: biochemical
Description: The average rates of ATPase inhibition, and the IC50 values are determined by Victor Nivo multimode plate reader (PerkinElmer, USA).
As to the assays background, a biochemical assay couples the ATPase activity of bovine cardiac myosin to an enzymatic coupling system consisting of pyruvate kinase and lactate dehydrogenase (PK/LDH) and monitoring the absorbance decrease of NADH (at 340 nm) as a function of time to measure the inhibitory ability of small molecule agents. In the assay, PK converts ADP (Adenosine diphosphate) to ATP (adenosine triphosphate) by converting PEP (phosphoenolpyruvate) to pyruvate. Pyruvate is then converted to lactate by LDH by converting NADH (nicotinamide adenine dinucleotide) to NAD (oxidized nicotinamide adenine dinucleotide).
In our experiments, bovine skinned cardiac myofibrils were isolated from the frozen bovine left ventricle as myosin's source in the ATPase assay. The calcium concentration that achieves a 50% (pCa50 or pCa=6.25) activation of the myofibril system was chosen as the final condition for assessing the activation activity according to the literature (DOI: 10.1074/jbc.M117.776815). Myofibrils ATPase activity was measured in a buffered solution containing 12 mM PIPES (piperazine-N, N′-bis(2-ethane sulfonic acid) and 2 mM magnesium chloride at pH 6.8 (PM12 buffer). Final assay conditions were 1 mg/mL of bovine cardiac myofibrils, 1:20 of stock PK/LDH (Sigma-Aldrich, Cat No. P0294-5X5ML), 50 μM ATP, 1 mM DTT (dithiothreitol), 0.75 mM NADH, 1.5 mM PEP at pCa50 (pCa=6.25). Compounds were dissolved in DMSO (dimethyl sulfoxide). Serial dilution of compounds was created such that the final desired concentration of compound would be achieved in a volume of 150 μL with a fixed DMSO concentration of 2% (v/v). 75 μL of a solution containing bovine cardiac myofibrils, PK/LDH, and calcium were added to a 96 well plate for a 7 point dose-response. In some circumstances, 10 point-response was used to repeat the ATPase assays on compounds of interest. Compounds were added to the myofibrils solution and incubated for 5 minutes. The enzymatic reaction was started with the addition of 75 μL of a solution containing ATP, PEP, NADH, compounds, and calcium. The ATPase activity was measured by reading absorbance at 340 nm in a PerkinElmer Victor Nivo plate reader at 25° C. in kinetic mode for 15 minutes using clear bottom plates. The slopes of the absorbance changes as a function of time for the first 10 minutes were normalized to slopes on the control wells containing all reagents, including DMSO, but without compounds. This normalized rate was then plotted as a function of small molecule concentration in GraphPad prism 9. The data were fitted to a four-parameter fit, and IC50 was calculated using Graphpad Prism 9.

Sequence of bovine cardiac myosin (Q9BE39 whole entry): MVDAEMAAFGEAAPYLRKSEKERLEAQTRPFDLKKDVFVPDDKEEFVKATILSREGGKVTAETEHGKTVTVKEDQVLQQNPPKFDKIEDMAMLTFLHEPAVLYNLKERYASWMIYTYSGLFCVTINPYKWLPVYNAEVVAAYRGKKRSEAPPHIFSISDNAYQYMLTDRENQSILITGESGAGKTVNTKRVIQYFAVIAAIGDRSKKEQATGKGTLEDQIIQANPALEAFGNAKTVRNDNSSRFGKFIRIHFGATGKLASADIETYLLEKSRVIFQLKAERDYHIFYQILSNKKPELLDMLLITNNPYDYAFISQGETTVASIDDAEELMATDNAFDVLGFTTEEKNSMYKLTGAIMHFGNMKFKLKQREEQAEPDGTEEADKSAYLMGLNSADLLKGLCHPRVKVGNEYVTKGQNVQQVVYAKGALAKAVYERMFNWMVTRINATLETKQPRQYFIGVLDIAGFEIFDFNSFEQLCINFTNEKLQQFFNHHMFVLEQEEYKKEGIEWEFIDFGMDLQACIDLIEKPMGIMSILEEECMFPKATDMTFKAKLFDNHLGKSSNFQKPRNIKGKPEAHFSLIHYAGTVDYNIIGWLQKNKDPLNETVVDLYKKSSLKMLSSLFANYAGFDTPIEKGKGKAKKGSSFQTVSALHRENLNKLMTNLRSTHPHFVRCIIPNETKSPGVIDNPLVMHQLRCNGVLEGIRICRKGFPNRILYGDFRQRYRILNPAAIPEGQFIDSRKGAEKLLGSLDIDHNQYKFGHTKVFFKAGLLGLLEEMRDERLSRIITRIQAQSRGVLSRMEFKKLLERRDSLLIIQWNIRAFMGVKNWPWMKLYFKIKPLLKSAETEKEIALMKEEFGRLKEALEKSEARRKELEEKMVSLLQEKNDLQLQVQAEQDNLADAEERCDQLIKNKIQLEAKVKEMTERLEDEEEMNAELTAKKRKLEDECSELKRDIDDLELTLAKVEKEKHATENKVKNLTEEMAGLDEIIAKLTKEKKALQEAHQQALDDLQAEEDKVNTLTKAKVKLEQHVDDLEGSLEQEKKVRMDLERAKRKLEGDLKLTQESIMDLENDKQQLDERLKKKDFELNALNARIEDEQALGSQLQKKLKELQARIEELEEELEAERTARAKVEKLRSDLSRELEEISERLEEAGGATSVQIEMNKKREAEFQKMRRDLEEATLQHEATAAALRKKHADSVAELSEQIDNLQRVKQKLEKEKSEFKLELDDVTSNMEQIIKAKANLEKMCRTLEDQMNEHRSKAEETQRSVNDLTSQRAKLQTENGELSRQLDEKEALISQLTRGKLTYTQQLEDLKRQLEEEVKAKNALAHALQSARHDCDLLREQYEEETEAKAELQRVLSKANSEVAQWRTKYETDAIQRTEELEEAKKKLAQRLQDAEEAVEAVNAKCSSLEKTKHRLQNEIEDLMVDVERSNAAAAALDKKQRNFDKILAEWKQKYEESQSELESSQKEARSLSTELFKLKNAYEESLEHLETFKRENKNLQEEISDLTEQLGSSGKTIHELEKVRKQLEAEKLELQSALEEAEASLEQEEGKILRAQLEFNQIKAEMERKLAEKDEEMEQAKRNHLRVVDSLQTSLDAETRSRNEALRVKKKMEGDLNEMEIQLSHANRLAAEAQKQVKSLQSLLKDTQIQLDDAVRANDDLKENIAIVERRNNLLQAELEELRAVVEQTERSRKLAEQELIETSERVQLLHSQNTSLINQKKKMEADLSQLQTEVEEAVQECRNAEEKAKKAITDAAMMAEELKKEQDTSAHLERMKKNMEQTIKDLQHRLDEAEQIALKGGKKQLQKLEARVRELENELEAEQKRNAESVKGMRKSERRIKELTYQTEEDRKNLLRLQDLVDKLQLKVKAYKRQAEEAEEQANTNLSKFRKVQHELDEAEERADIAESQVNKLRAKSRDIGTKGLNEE
Sequence of bovine cardiac myosin (P85100 whole entry partner): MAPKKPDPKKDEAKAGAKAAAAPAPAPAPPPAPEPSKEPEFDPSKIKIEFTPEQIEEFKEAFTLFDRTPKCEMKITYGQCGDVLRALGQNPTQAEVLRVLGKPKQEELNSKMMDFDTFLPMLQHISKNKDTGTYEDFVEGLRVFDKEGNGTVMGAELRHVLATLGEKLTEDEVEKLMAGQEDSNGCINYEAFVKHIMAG
Sequence of bovine cardiac myosin (Q3SZE5 whole entry partner): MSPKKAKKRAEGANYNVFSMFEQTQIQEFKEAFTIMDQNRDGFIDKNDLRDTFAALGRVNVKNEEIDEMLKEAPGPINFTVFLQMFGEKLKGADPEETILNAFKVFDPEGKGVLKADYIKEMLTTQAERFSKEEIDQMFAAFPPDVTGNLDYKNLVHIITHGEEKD

Compound | IC50 [µM]
C[C@H](Nc1nc(=O)n(-c2cccnc2)c(=O)[nH]1)C1CCCCC1 [Example 24] | 9.14
COc1ccccc1[C@H](C)Nc1nc(=O)n(C2CCOCC2)c(=O)[nH]1 [Example 150] | 6.63
C[C@H](Nc1nc(=O)n([C@H]2CC[C@H](F)CC2)c(=O)[nH]1)C1CCCCC1 [Example 87] | 0.45
C[C@H](Nc1nc(=O)n(C2CCOCC2)c(=O)[nH]1)c1ccc2c(c1)OC(F)(F)O2 [Example 298] | 0.88
CC(C)(C#N)c1cccc([C@@H](Nc2nc(=O)n(C3CCOCC3)c(=O)[nH]2)C(F)F)c1 [Example 268] | 1.07
Cc1cccc([C@H](C)Nc2nc(=O)n([C@H]3CC[C@@H](NC(=O)OC(C)(C)C)CC3)c(=O)[nH]2)c1 [Example 96] | 4.58
COCCN1CCC(n2c(=O)nc(N[C@@H](C)c3cccc(C)c3)[nH]c2=O)CC1 [Example 38] | 1.45
C[C@H](Nc1nc(=O)n([C@H]2CCOC[C@H]2F)c(=O)[nH]1)c1cccc(C(F)(F)F)c1 [Example 310] | 1.49
C[C@H](Nc1nc(=O)n(C2CCOCC2)c(=O)[nH]1)c1cccc(-c2cnn(C)c2)c1 [Example 229] | 0.82
CC(Nc1nc(=O)n(C2CCOCC2)c(=O)[nH]1)c1ccc2c(c1)OC(F)(F)O2 (stereo not drawn) [Example 148] | 1.14
O=c1nc(NC(C2CCCCC2)C(F)(F)F)[nH]c(=O)n1C1CCOCC1 (stereo not drawn) [Example 75] | 6.12
C[C@H](Nc1nc(=O)n(C2CCOCC2)c(=O)[nH]1)c1cc(C(F)(F)F)cc(C(F)(F)F)c1 [Example 196] | 2.67
CC(C)N1CCC(n2c(=O)nc(N[C@@H](C)C3CCCCC3)[nH]c2=O)CC1 [Example 31] | 5.91
CC(Nc1nc(=O)n(C(C)C)c(=O)[nH]1)c1ccccc1O (stereo not drawn) [Example 51] | 11.1
Cc1cccc([C@H](C)Nc2nc(=O)n(C3CCOC(C)C3)c(=O)[nH]2)c1 (stereo partly drawn) [Example 100] | 5.41
C[C@H](Nc1nc(=O)n([C@@H]2CCOC[C@@H]2F)c(=O)[nH]1)c1ccc(Cl)c(Cl)c1 [Example 320] | 1.02
Cc1cccc([C@H](C)Nc2nc(=O)n(C3CCCOC3)c(=O)[nH]2)c1 (stereo partly drawn) [Example 35] | 2.59
C[C@H](Nc1nc(=O)n(C2CCOCC2)c(=O)[nH]1)c1cccc(C2CCN(CC(F)(F)F)CC2)c1 [Example 290] | 2.21
Cc1cccc([C@H](C)Nc2nc(=O)n(C3CCn4nccc4C3)c(=O)[nH]2)c1 (stereo partly drawn) [Example 92] | 7.47
C[C@H](Nc1nc(=O)n(C2CCOCC2)c(=O)[nH]1)c1cccc(-n2ccnc2)c1 [Example 200] | 1.78
C[C@H](Nc1nc(=O)n(C2CCOCC2)c(=O)[nH]1)c1cccc(C2CCOCC2)c1 [Example 207] | 1.32
CC(Nc1nc(=O)n(C2CCNCC2)c(=O)[nH]1)c1cccc(F)c1 (stereo not drawn) [Example 191] | 7.63

Compound | IC50 [µM]
C[C@H](Nc1nc(=O)n([C@@H](C)C(F)(F)F)c(=O)[nH]1)c1ccc(Cl)c(Cl)c1 [Example 324] | 1.06
CC(C)n1c(=O)nc(N[C@@H](C)c2ccc(OC(F)(F)F)cc2)[nH]c1=O [Example 177] | 1.75
CC(Nc1nc(=O)n(C(C)C)c(=O)[nH]1)C1CCC(F)(F)CC1 (stereo not drawn) [Example 66] | 10.2
C[C@H](Nc1nc(=O)n(C2CCCC2)c(=O)[nH]1)C1CCCCC1 [Example 78] | 4.89
CC[C@H](Nc1nc(=O)n(C2CCOCC2)c(=O)[nH]1)C1CCCCC1 [Example 116] | 3.95
CC(C)n1c(=O)nc(N[C@@H](C)c2ccccc2)[nH]c1=O [Example 3] | 7.05
CO[C@@H]1COCC[C@H]1n1c(=O)nc(N[C@@H](C)c2cc(C)ccc2F)[nH]c1=O [Example 283] | 1.09
CC(Nc1nc(=O)n(C2CCN(C(=O)OC(C)(C)C)CC2)c(=O)[nH]1)c1ccc(C(F)(F)F)cc1 (stereo not drawn) [Example 145] | 3.77
CC(=O)N1CCC(n2c(=O)nc(N[C@@H](C)C3CCCCC3)[nH]c2=O)CC1 [Example 236] | 2.65
COc1cc([C@H](C)Nc2nc(=O)n(C3CCOCC3)c(=O)[nH]2)ccc1F [Example 171] | 0.91
C[C@H](Nc1nc(=O)n(C2CCOCC2)c(=O)[nH]1)c1cccc(-c2cncnc2)c1 [Example 223] | 0.89
CC(O)c1cccc([C@@H](Nc2nc(=O)n(C3CCOCC3)c(=O)[nH]2)C(F)F)c1 (stereo partly drawn) [Example 266] | 1.98
CC(C)n1c(=O)nc(NCCC2CCCCC2)[nH]c1=O [Example 65] | 4.23
Cc1cccc([C@H](C)Nc2nc(=O)n(C3CCN(CCF)CC3)c(=O)[nH]2)c1 [Example 301] | 0.8
CC(C)n1c(=O)nc(N[C@H](c2cccc(C(C)(C)C#N)c2)C(F)F)[nH]c1=O [Example 264] | 1.37
C[C@H](Nc1nc(=O)n([C@@H](C)C(F)(F)F)c(=O)[nH]1)c1ccc(OC(F)(F)F)cc1 [Example 175] | 2.76
C[C@H](Nc1nc(=O)n(C2CCOCC2)c(=O)[nH]1)c1cccc(Cl)c1F [Example 11] | 1.37
CC(Nc1nc(=O)n(C2CCOCC2)c(=O)[nH]1)c1ccc(C(F)(F)F)cc1 (stereo not drawn) [Example 131] | 2.49
CC(Nc1nc(=O)n(C2CCNCC2)c(=O)[nH]1)c1ccccc1F (stereo not drawn) [Example 190] | 4.65
CC(C)n1c(=O)nc(N[C@@H](C)c2ccc(Cl)c(Cl)c2)[nH]c1=O [Example 325] | 1.17
Cc1ccc(C(C)Nc2nc(=O)n(C3CCNCC3)c(=O)[nH]2)cc1 (stereo not drawn) [Example 194] | 4.47
C[C@H](Nc1nc(=O)n(C2CCOCC2)c(=O)[nH]1)c1cccc(C2=CCCCC2)c1 [Example 331] | 1.11

Compound | IC50 [µM]
CC(C)[C@@H](O)c1cccc([C@H](C)Nc2nc(=O)n(C3CCOCC3)c(=O)[nH]2)c1 [Example 287] | 0.54
C[C@H](Nc1nc(=O)n([C@H]2CCOC[C@H]2F)c(=O)[nH]1)c1ccc(Cl)c(Cl)c1 [Example 321] | 1.07
C[C@H](Nc1nc(=O)n(C2CCOCC2)c(=O)[nH]1)c1cccc(-c2ccc(F)cc2)c1 [Example 226] | 1.75
C[C@H](Nc1nc(=O)n(C2CCOCC2)c(=O)[nH]1)c1ccc(Cl)cc1 [Example 251] | 0.95
COC[C@@H](Nc1nc(=O)n(C2CCOCC2)c(=O)[nH]1)c1cc(C)ccc1F [Example 278] | 0.63
C[C@H](Nc1nc(=O)n(CC(F)(F)F)c(=O)[nH]1)c1ccc(OC(F)(F)F)cc1 [Example 176] | 7.9
CC(C)n1c(=O)nc(N[C@@H](C)c2cccc([C@H](C)O)c2)[nH]c1=O [Example 342] | 2.07
CC(C)Oc1ccc([C@H](C)Nc2nc(=O)n(C3CCOCC3)c(=O)[nH]2)cc1 [Example 43] | 1.08
C[C@H](Nc1nc(=O)n(C2CCOCC2)c(=O)[nH]1)c1cccc(C(O)C(F)(F)F)c1 (stereo partly drawn) [Example 348] | 2.45
Cc1ccc([C@H](C)Nc2nc(=O)n(C3CCOCC3)c(=O)[nH]2)cc1C [Example 153] | 1.23
Cc1cccc([C@H](C)Nc2nc(=O)n(C3CCCCC3)c(=O)[nH]2)c1 [Example 93] | 8.03
C[C@H](Nc1nc(=O)n(C2CCOCC2)c(=O)[nH]1)c1cccc(F)c1F [Example 170] | 1.52
C[C@H](Nc1nc(=O)n(C2CCOCC2)c(=O)[nH]1)c1cccc(C2CCN(C(=O)OC(C)(C)C)CC2)c1 [Example 211] | 1.31
C[C@H](Nc1nc(=O)n([C@H](C)C(F)(F)F)c(=O)[nH]1)c1ccc(OC(F)(F)F)cc1 [Example 174] | 2.82
C[C@H](Nc1nc(=O)n([C@H](C)C(F)(F)F)c(=O)[nH]1)c1cccc(F)c1 [Example 178] | 3.32
CC(O)c1cccc([C@H](C)Nc2nc(=O)n(C3CCOCC3)c(=O)[nH]2)c1 (stereo partly drawn) [Example 248] | 1.5
O=c1nc(NCCC2CCCCC2)[nH]c(=O)n1C1CCOCC1 [Example 114] | 14.2
CC(Nc1nc(=O)n(C2CCNCC2)c(=O)[nH]1)c1cccc(C(F)(F)F)c1 (stereo not drawn) [Example 192] | 5.81
C[C@H](Nc1nc(=O)n(C2CCOCC2)c(=O)[nH]1)c1cccc(-c2cccnc2)c1 [Example 222] | 2.05
COC(=O)c1ccc([C@H](C)Nc2nc(=O)n(C3CCOCC3)c(=O)[nH]2)cc1 [Example 247] | 2.42
Cc1cccc([C@H](Nc2nc(=O)n(C3CCOCC3)c(=O)[nH]2)C(F)F)c1 [Example 284] | 0.29
CC(Nc1nc(=O)n(C2CCOCC2)c(=O)[nH]1)c1ccc(F)cc1 (stereo not drawn) [Example 125] | 8.4

Source: patent publication US20240262804A1, “NITROGEN-CONTAINING HETEROCYCLIC KETONES, PREPARATION METHODS AND MEDICINAL USES THEREOF” (Hansoh Bio LLC, priority 2021, published 2024)
